Results on 16 molecules are retold here after patent publication US7737127B2, “2-propynyl adenosine analogs having A2A agonist activity and compositions thereof” (University of Virginia Patent Foundation, priority 2001, dated 2010).

Assay [1] concerns human neutrophils. Description: Human neutrophil oxidative activity, luminol-enhanced chemiluminescence. Format: cell-based. The method, then: Chemiluminescence Methods: Lumninol enhanced chemiluminescence, a measure of neutrophil oxidative activity, is dependent upon both superoxide production and mobilization of the granule enzyme myeloperoxidase. The light is emitted from unstable high-energy oxygen species such as hypochlorous acid and singlet oxygen generated by activated neutrophils.
The plate was incubated 5 min (37 C) and then fMLP (50 l in HA; final concentration […]) was added to all wells.
Data are presented as peak chemiluminescence as percent of activity in the absence of an adenosine agonist. The EC50 was determined using PRISM software. All compounds were tested with PMNs from three separate donors.
Lummol-enhanced chemiluminescence, a measure of neutrophil oxidative activity, is dependent upon both superoxide production and mobilization of the lysosomal granule enzyme myeloperoxidase. The light is emitted from unstable high-energy oxygen species generated by activated neutrophils. Purified neutrophils (5-10×10^5/ml) were incubated in Hanks balanced salt solution containing 0.1% human serum albumin (1 ml) with the tested A2A agonist with or without rolipram and with or without tumor necrosis factor-alpha (1 U/ml) for 30 minutes at 37° C. in a shaking water bath. […] Chemiluminescence is reported as relative peak light emitted (=height of the curve) compared to samples with tumor necrosis factor-alpha and without agonist or rolipram.

Assay [2] has as its target T1, A3 AR (Homo sapiens, UniProt P0DMS8).
T1 sequence (P0DMS8 1-318): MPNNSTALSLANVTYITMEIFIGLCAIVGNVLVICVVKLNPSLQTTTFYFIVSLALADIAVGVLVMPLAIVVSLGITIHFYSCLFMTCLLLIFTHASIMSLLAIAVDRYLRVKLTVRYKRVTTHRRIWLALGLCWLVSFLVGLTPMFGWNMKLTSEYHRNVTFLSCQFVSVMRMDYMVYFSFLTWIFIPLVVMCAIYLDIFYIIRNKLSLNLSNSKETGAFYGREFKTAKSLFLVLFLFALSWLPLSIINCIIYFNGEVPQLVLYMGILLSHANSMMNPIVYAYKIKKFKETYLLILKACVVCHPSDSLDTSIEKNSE
Nature of the assay: Radioligand competition binding (125I-ABA) to human A3 AR in HEK 293 cell membranes. The note with it: for Ki: Ki from competition binding, 125I-ABA, HEK 293 cell membranes; for A3/A2A: selectivity ratio A3 over A2A. On the technique in general: In a radioligand displacement assay an active substance lowers the binding of a labelled ligand.

Assay [3] deals with recombinant human A2A receptors (Homo sapiens, UniProt P29274). Description: Radioligand competition binding to recombinant human A2A receptors in Sf9 cell membranes.
Method: Sf9 cells were cultured in Grace's medium supplemented with 10% fetal bovine serum, 2.5 μg/ml amphotericin B and 50 μg/ml gentamycin in an atmosphere of 50% N2/50% O2. […] Infected cells were harvested 3 days post-infection and washed twice in insect PBS (PBS pH 6.3). Cells were then resuspended in lysis buffer (20 mM HEPES pH 7.5, 150 mM NaCl, 3 mM MgCl2, 1 mM β-mercaptoethanol (BME), 5 μg/mL leupeptin, 5 μg/mL pepstatin A, 1 μg/mL aprotinin, and 0.1 mM PMSF) and snap frozen for storage at −80° C. Cells were thawed on ice, brought to 30 mL total volume in lysis buffer, and burst by N2 cavitation (600 psi for 20 minutes). A low-speed centrifugation was performed to remove any unlysed cells (1000×g for 10 minutes), followed by a high-speed centrifugation (17,000×g for 30 minutes). The pellet from the final centrifugation was homogenized in buffer containing 20 mM HEPES pH 8, 100 mM NaCl, 1% glycerol, 2 μg/mL leupeptin, 2 μg/mL pepstatin A, 2 μg/mL Aprotinin, 0.1 mM PMSF, and 10 μM GDP using a small glass homogenizer followed by passage through a 26 gauge needle. Membranes were aliquoted, snap frozen in liquid N2, and stored at −80° C.
Binding experiments were performed in triplicate with 5 μg (A2A) or 25 μg (A1 and A3) membrane protein in a total volume of 0.1 mL HE buffer (20 mM HEPES and 1 mM EDTA) with 1 U/mL adenosine deaminase and 5 mM MgCl2 with or without 50 μM GTPγS. Membranes were incubated with radioligands at room temperature for three hours (for agonists) or two hours (for antagonists) in Millipore Multiscreene® 96-well GF/C filter plates and assays were terminated by rapid filtration on a cell harvester (Brandel, Gaithersburg, Md.) followed by 4×150 μl washes over 30 seconds with ice cold 10 mM Tris-HCl, pH 7.4, 10 mM MgCl2.
Assay [4] addresses T2, human A1 AR (Homo sapiens, UniProt P30542).
T2 sequence (P30542 1-326): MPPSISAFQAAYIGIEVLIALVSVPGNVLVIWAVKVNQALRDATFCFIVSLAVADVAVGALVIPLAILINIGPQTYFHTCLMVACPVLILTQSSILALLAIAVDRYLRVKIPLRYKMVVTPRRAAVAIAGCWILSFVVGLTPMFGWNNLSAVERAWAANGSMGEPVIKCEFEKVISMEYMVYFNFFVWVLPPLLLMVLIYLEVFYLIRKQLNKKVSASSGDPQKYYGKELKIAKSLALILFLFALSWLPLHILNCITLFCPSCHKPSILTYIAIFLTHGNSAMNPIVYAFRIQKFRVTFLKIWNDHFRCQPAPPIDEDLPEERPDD
Nature of the assay: Radioligand competition binding (125I-ABA) to human A1 AR in CHO K1 cell membranes. The note with it: for Ki: Ki from competition binding, 125I-ABA, CHO K1 cell membranes; for A1/A2A: selectivity ratio A1 over A2A.

Setting [5] is: human neutrophil experiment w/Rolipram.
Setting [6] is: human neutrophil experiment w/o Rolipram.
The mark [7] stands for this setting: A2A ± SEM, Ki from competition binding, Sf9 cell membranes.
Setting [8] is: read-out: A2A ± SEM, Ki from competition binding, Sf9 cell membranes.
[9] abbreviates: human neutrophil experiment w/o Rolipram, read-out: PMN oxid (-log EC50) (converted).
[10] abbreviates: Homo sapiens, Neutrophil, human neutrophil experiment w/o Rolipram, read-out: PMN oxid (-log EC50) (converted).

Like-named read-outs stand apart in the source and are kept apart here.

Chain of recombinant human A2A receptors (P29274 whole entry): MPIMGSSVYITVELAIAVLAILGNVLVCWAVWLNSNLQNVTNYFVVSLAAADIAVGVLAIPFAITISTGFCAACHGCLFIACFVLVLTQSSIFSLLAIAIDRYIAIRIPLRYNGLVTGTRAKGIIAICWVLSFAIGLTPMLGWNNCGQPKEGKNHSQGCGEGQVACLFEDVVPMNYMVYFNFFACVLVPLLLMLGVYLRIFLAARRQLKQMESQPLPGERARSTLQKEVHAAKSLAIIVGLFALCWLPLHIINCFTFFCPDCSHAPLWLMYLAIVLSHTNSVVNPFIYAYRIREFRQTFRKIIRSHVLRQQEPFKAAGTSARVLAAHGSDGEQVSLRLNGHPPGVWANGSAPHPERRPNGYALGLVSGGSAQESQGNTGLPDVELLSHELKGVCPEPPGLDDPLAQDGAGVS

As to `CCNC(=O)[C@H]1O[C@@H](n2cnc3c(N)nc(C#CCC4CCC(C)(C(=O)OC)CC4)nc32)C(O)C1O` (single isomer, unassigned) [JR-3067A, 4-{3-[6-Amino-9-(5-ethylcarbamoyl-3,4-dihydroxytetrahydrofuran-2-yl)-9H-purin-2-yl]-prop-2-ynyl}-1-methyl-cyclohexanecarboxylic acid methyl ester], the “PMN oxid + roli (-log EC50)” value in assay [1] (setting [5]) was determined as 8.7. For the same molecule, in assay [1] (setting [6]), the “PMN oxid (-log EC50)” value worked out at 7.65. Further, the Ki in assay [2] (A3 ± SEM) was determined as 39 ± 3 nM; in assay [3] (setting [7]), 1.3 ± 0.8 nM; in assay [4] (A1 ± SEM), 99 ± 27 nM. Also, the A3/A2A in assay [2] is 30.0. The A1/A2A in assay [4] is 76.2.
With `CCNC(=O)[C@H]1O[C@@H](n2cnc3c(N)nc(C#CCC4CCC(C)(C(=O)OC)CC4)nc32)C(O)C1O` (single isomer, unassigned) [JR-3067B, 4-{3-[6-Amino-9-(5-ethylcarbamoyl-3,4-dihydroxytetrahydrofuran-2-yl)-9H-purin-2-yl]-prop-2-ynyl}-1-methyl-cyclohexanecarboxylic acid methyl ester], in assay [1] (setting [5]), the “PMN oxid + roli (-log EC50)” value worked out at 8.2. In assay [1] (setting [6]), the “PMN oxid (-log EC50)” value came to 6.83. Further, the figures for the Ki in assay [2] (A3 ± SEM), in assay [3] (setting [7]) and in assay [4] (A1 ± SEM) were 212 ± 95 nM, 4 ± 0.2 nM and 121 ± 44 nM, respectively. The A3/A2A in assay [2] worked out at 53.0. Moreover, in assay [4], the A1/A2A stood at 30.3.
Take `CCNC(=O)C1OC(n2cnc3c(N)nc(C#CC(O)C4CCCCC4)nc32)C(O)C1O` (single isomer, unassigned) [JR-3159A]: in assay [1] (setting [5]), the “PMN oxid + roli (-log EC50)” value was determined as 9.34. For the same molecule, the “PMN oxid (-log EC50)” value in assay [1] (setting [6]) is listed as 8.43. In addition, the Ki was 3.9 ± 1.5 nM in assay [2] (read-out: A3 ± SEM), 0.6 ± 0.06 nM in assay [3] (setting [8]) and 0.9 ± 0.05 nM in assay [4] (read-out: A1 ± SEM). Also, the A3/A2A in assay [2] was 6.6. The A1/A2A in assay [4] amounted to 1.4.
With `CCNC(=O)C1OC(n2cnc3c(N)nc(C#CC(O)C4CCCCC4)nc32)C(O)C1O` (single isomer, unassigned) [JR-3159B], the “PMN oxid + roli (-log EC50)” value in assay [1] (setting [5]) turned out to be 10.36. In assay [1] (setting [6]), the “PMN oxid (-log EC50)” value is reported as 9.44. The figures for the Ki in assay [2] (read-out: A3 ± SEM), in assay [3] (setting [8]) and in assay [4] (read-out: A1 ± SEM) were 2.6 ± 0.3 nM, 0.4 ± 0.07 nM and 2 ± 0.21 nM, respectively. Also, in assay [2], the A3/A2A was 7.4. In assay [4], the A1/A2A is 5.7.
For `CCNC(=O)[C@H]1O[C@@H](n2cnc3c(N)nc(C#CC4(O)CCCCC4C)nc32)C(O)C1O` (single isomer, unassigned) [JR-3177A, 5-[6-Amino-2-(1-hydroxy-2-methyl-cyclohexylethynyl)-purin-9-yl]-3,4-dihydroxytetrahydrofuran-2-carboxylic acid ethylamide], the “PMN oxid + roli (-log EC50)” value in assay [1] (setting [5]) worked out at 9.03. The “PMN oxid (-log EC50)” value in assay [1] (setting [6]) was 7.53. The results for the Ki in assay [2] (A3 ± SEM), in assay [3] (setting [7]) and in assay [4] (A1 ± SEM) were 6.7 ± 0.3 nM, 1.2 ± 0.35 nM and 8.7 ± 0.07 nM, respectively. The A3/A2A in assay [2] came out at 5.5. For the same molecule, in assay [4], the A1/A2A was found to be 7.1.
For orientation: EC50 means the concentration needed to bring the measured effect to its halfway point. As to `CCNC(=O)[C@H]1O[C@@H](n2cnc3c(N)nc(C#CCC4CCC(C(=O)OC)CC4)nc32)C(O)C1O` (stereo in doubt) [ATL-146e, 4-{3-[6-Amino-9-(5-ethylcarbamoyl-3,4-dihydroxytetrahydrofuran-2-yl)-9H-purin-2-yl]-prop-2-ynyl}-cyclohexanecarboxylic acid methyl ester], the “PMN oxid + roli (-log EC50)” value in assay [1] (setting [5]) turned out to be 9.33. Further, the EC50 in assay [1] (setting [9]) was 3.55 nM. Also, the Ki is 45 ± 15 nM in assay [2] (A3 ± SEM) and 77 ± 12 nM in assay [4] (A1 ± SEM). Moreover, the A3/A2A in assay [2] is 90.0. Besides, the A1/A2A in assay [4] came to 154.0.
Take `CCNC(=O)[C@H]1O[C@@H](n2cnc3c(N)nc(C#CC4(O)CCCC4)nc32)C(O)C1O` (stereo in doubt) [JR-3135, 5-[6-Amino-2-(1-hydroxy-cyclopentylethynyl)-purin-9-yl]-3,4-dihydroxytetrahydrofuran-2-carboxylic acid ethylamide]: the EC50 in assay [1] (setting [10]) is 1.26 nM. Also, the “PMN oxid + roli (-log EC50)” value in assay [1] (setting [5]) came to 9.6. For the same molecule, the Ki in assay [2] (A3 ± SEM) came to 3.5 ± 1.2 nM; in assay [4] (A1 ± SEM) it was 5 ± 1.3 nM.
As for `CCNC(=O)[C@H]1O[C@@H](n2cnc3c(N)nc(C#CCN4CC5CC4CN5C(=O)OC(C)(C)C)nc32)C(O)C1O` (stereo in doubt) [JR-4015, 5-{3-[6-Amino-9-(5-ethylcarbamoyl-3,4-dihydroxytetrahydrofuran-2-yl)-9H-purin-2-yl]prop-2-ynyl}-2,5-diazabicyclo[2.2.1]heptane-2-carboxylic acid tert-butyl ester], the A3/A2A in assay [2] is listed as 0.0. The Ki in assay [3] was found to be 4.25 ± 1 nM. In assay [4], the A1/A2A worked out at 0.0.
As for `CCNC(=O)[C@H]1O[C@@H](n2cnc3c(N)nc(C#CC[C@H]4CC[C@H](COC(=O)OCC(C)C)CC4)nc32)C(O)C1O` (stereo partly drawn) [ATL215, N-Ethyl 2-{3-[trans-4-(isobutoxyoxycarbonyloxamethyl)-cyclohexyl]-1-propyn-1-yl}adenosine-5′-uronamide], the EC50 in assay [1] (setting [10]) was 20 nM. The Ki in assay [3] (setting [7]) amounted to 4.8 nM.
For `CCNC(=O)[C@H]1O[C@@H](n2cnc3c(N)nc(C#CC[C@H]4CC[C@H](COC(=O)OCc5ccccc5)CC4)nc32)C(O)C1O` (stereo partly drawn) [ATL216, N-Ethyl 2-{3-[trans-4-(benzoxycarbonyloxamethyl)-cyclohexyl]-1-propyn-1-yl}adenosine-5′-uronamide], in that order: 13 nM and 2.7 nM.
In the case of `OC[C@H]1O[C@@H](n2cnc3c(NC4CCCC4)nc(Cl)nc32)[C@H](O)[C@@H]1O` [CCPA, 2-chloro-N^6-cyclopentyladenosine, reference compound], the “PMN oxid + roli (-log EC50)” value in assay [1] (setting [5]) was found to be 7.26. Also, the EC50 in assay [1] (setting [9]) was 4270 nM.
For the molecule `CCNC(=O)[C@H]1O[C@@H](n2cnc3c(N)nc(NCCc4ccc(CCC(=O)O)cc4)nc32)[C@H](O)[C@@H]1O` [CGS-21680, 2-[4-(2-carboxyethyl)phenethylamino]-5′-N-ethyl-carboxamidoadenosine, reference compound], the EC50 is 2.82 nM in assay [1] (Homo sapiens, Neutrophil, human neutrophil experiment w/Rolipram, read-out: PMN oxid + roli (-log EC50) (converted)) and 30.2 nM in assay [1] (setting [10]).
As to `CNC(=O)[C@H]1O[C@@H](n2cnc3c(NCc4cccc(I)c4)nc(Cl)nc32)[C@H](O)[C@@H]1O` [CI-IBMECA, N^6-3-iodo-2-chlorobenzyladenosine-5′-N-methyluronamide, reference compound], the EC50 in assay [1] (setting [9]) was 45700 nM.
In the case of `OC[C@H]1O[C@@H](n2cnc3c(NC4CCCC4)ncnc32)[C@H](O)[C@@H]1O` [CPA, N^6-cyclopentyladenosine, reference compound], the EC50 in assay [1] (setting [10]) was 93300 nM. The “PMN oxid + roli (-log EC50)” value in assay [1] (setting [5]) stood at 7.06. For the same molecule, the values for the Ki in assay [2] (A3 ± SEM) and in assay [3] (A2A ± SEM) were 93 ± 7 nM and 19.8 ± 3.2 nM, respectively.
For `CNC(=O)[C@H]1O[C@@H](n2cnc3c(NCc4cccc(I)c4)ncnc32)[C@H](O)[C@@H]1O` [IBMECA, N^6-3-iodobenzyladenosine-5′-N-methyluronamide, reference compound], the “PMN oxid + roli (-log EC50)” value in assay [1] (setting [5]) was 8.01. Moreover, in assay [1] (setting [9]), the EC50 is 324 nM.
For `CCNC(=O)[C@H]1O[C@@H](n2cnc3c(N)ncnc32)[C@H](O)[C@@H]1O` [NECA, 5′-N-ethylcarboxamidoadenosine, reference compound], in that order: 8.95 and 15.1 nM.
